# Measurements: US20220354858A1, “METHOD FOR TREATING MALIGNANT TUMOR” (TAIHO PHARMACEUTICAL CO., LTD., priority 2019, published 2022)
# Several values for one entry are separate records, joined by “and”; a condition that tells them apart may be missing. Identical values can stand only once. Like-named read-outs stand apart in the source and are kept apart here.
# What was measured:
# [1] = test system: Human ovarian cancer cell line OVCAR-3; assay: Administration schedule study in nude mouse model subcutaneously transplanted with OVCAR-3; assay type: in vivo; conditions: OVCAR-3 xenograft, FIG. 1
# Protocol: Human ovarian cancer cell line OVCAR-3 (American Type Culture Collection (ATCC)) that had been subcutaneously subcultured in mice was cut to about 2 mm squares and subcutaneously transplanted into 5-week-old […] BALB/cAJcl-nu/nu mice (CLEA Japan, Inc.) using a transplantation needle.
# The grouping day was defined as Day 1.
# The tumor volume (TV) was calculated using the following formula.
# TV=(major axis×minor axis×minor axis)×½
# Requisite amounts of Compound 1 were weighed, and each was individually suspended in a 0.5% (w/v) hydroxypropyl methylcellulose (HPMC) aqueous solution to prepare administration liquids having appropriate concentrations. For the control group, a 0.5% (w/v) HPMC aqueous solution was used as an administration liquid.
# The administration amount was 10 mL/kg body weight, and each administration liquid was individually injected into the stomach of the mice with a feeding needle.
# Twice a week, the major axis and the minor axis of each tumor were measured from the skin with an electronic caliper, and the following items were further calculated. These were used as indexes to confirm the presence or absence of an antitumor effect.
# Tumor volume (TVn)=(major axis×minor axis×minor axis)×½ […]
# On the same days as the tumor volume measurement, the body weight (BW) of the mice was measured with an electronic balance, and the body weight change (BWC) was further calculated. […]
# advanced solid cancers = assay: Optimal dosage regimen study in humans: safety (non-prescribed withdrawal) and efficacy (RECIST) profiles; assay type: in vivo, human; conditions: for Non-prescribed withdrawal: N = 6
# Protocol: With regard to Example 3, the optimal dosage regimen of Compound 1 was studied. The safety profiles and efficacy profiles when the recommend doses were administered in the schedule of administration for 7 consecutive days and the schedule of 4-administration with 3-withdrawal were compared in patients with advanced solid cancers for which standard treatment options were not available.
# For the safety profiles, non-prescribed withdrawal periods were compared. The non-prescribed withdrawal period is a comprehensive index of safety profiles.
# In this Example, dose modification criteria in the case of the occurrence of a toxicity for which a causal relationship to the drug cannot be denied were shown. Dose modification criteria for non-hematologic toxicities, dose modification criteria for hematologic toxicities, and dose modification criteria for other toxicities were set. When any of these criteria was met, a prescribed day to perform drug administration was changed to a day on which the drug is not administered, i.e., a non-prescribed withdrawal period.
# The dose modification criteria for non-hematologic toxicities for which a causal relationship to the drug cannot be denied were set as follows.
# With regard to fasting blood glucose, if symptomatic grade 4 hyperglycemia or grade 3 or higher hyperglycemia for more than 7 days develops, the administration is discontinued (non-prescribed withdrawal). If the condition recovers to grade 1 or grade 0, the administration can be resumed. When the administration is resumed, the administration amount is reduced by one level from the original administration amount. However, for adverse events (e.g., fatigue and skin dryness) that are judged to be less likely to become serious or worsen to life-threatening events, the administration of the drug can be continued at the same administration amount without dose reduction or administration discontinuation, regardless of the grades of the events.
# In the case of DLTs or grade 3 or higher non-hematologic toxicities as other toxicities, the administration is discontinued (non-prescribed withdrawal). If the condition recovers to grade 1 or less or to the baseline, the administration can be resumed. As grade 3 or higher non-hematologic toxicities, grade 3 nausea and/or vomiting that could be treated by intensive antiemetic therapy, grade 3 diarrhea in which an antidiarrheal was effective, and grade 3 skin toxicity that could be treated by intensive skin treatment with, for example, a topical steroid and/or an oral corticosteroid are excluded. When the administration is resumed, the administration amount is reduced by one level from the original administration amount. However, for adverse events (e.g., fatigue and skin dryness) that are judged to be less likely to become serious or worsen to life-threatening events, the administration of the drug can be continued at the same administration amount without dose reduction or administration discontinuation, regardless of the grades of the events.
# The dose modification criteria for hematologic toxicities for which a causal relationship to the drug cannot be denied were set as follows.
# If the neutrophil count is less than 500/mm^3, the administration is discontinued (non-prescribed withdrawal). If the neutrophil count recovers to 1500/mm^3 or more, the administration can be resumed. […] In the case of asymptomatic neutropenia lasting more than 7 days or neutropenia with a symptom (neutropenia with an infectious disease or fever), the administration amount is reduced by one level from the original administration amount.
# If the platelet count is less than 25000/mm^3, the administration is discontinued (non-prescribed withdrawal). If the platelet count recovers to 75000/mm^3 or more, the administration can be resumed. When the administration is resumed, the administration amount is reduced by one level from the original administration amount. […]
# [2] = Pharmacokinetics of Compound 1 in humans; assay type: in vivo, human; conditions: for Blood concentration remaining before administration: 24 mg/body/day, 4-administration with 3-withdrawal
# Protocol: The pharmacokinetics of the recommend doses of Compound 1 in administration for 7 consecutive days and 4-administration with 3-withdrawal were measured in patients with advanced solid cancers for which standard treatment options were not available.
# In the administration for 7 consecutive days, Compound 1 was orally administered once a day at a dose of 16 mg/body/day for three courses for a total duration of 21 days, with one course taken as 7 days. Blood samples were taken over time on day 1 and day 21, which was the last administration day of the three courses, to measure the pharmacokinetics.
# In the 4-administration with 3-withdrawal, Compound 1 was orally administered once a day at a dose of 24 mg/body/day for three courses for a total duration of 21 days, with one course taken as 7 days. Blood samples were taken over time on day 1 and day 18, which was the last administration day of the three courses, to measure the pharmacokinetics. Blood samples were also taken immediately before administration on day 3, day 4, and day 8.
# [3] = Dose escalation (3+3 design) to determine recommend dose and administration schedule in humans; assay type: in vivo, human; conditions: oral once a day, patients with advanced solid cancers
# Protocol: This test was performed to determine the recommend dose and administration schedule of Compound 1 and investigate the safety profile of Compound 1 for patients with advanced solid cancers for which standard treatment options are not available.
# In this Example, first, the recommend doses for the schedule of administration for 7 consecutive days and the schedule of 4-administration with 3-withdrawal were determined. In the schedule of administration of Compound 1 for 7 consecutive days, Compound 1 was orally administered consecutively once a day for three courses for a total duration of 21 days, with one course taken as 7 days. In 4-administration with 3-withdrawal, Compound 1 was orally administered once a day on day 1 to day 4, day 8 to day 11, and day 15 to day 18 of three courses for a total duration of 21 days, with one course taken as 7 days.
# In the schedule of administration for 7 consecutive days, the administration amount taken at one time started at 4 mg/body/day. […]
# In the present invention, the 3+3 design was performed in the following manner. […] Whether the level proceeds is determined by the investigator and the sponsor based on comprehensive considerations of not only the information on DLTs, but also all related toxicities regardless of whether they are DLTs, and drugs used in combination/combination therapy from a clinical perspective. […]
# [4] = mice; cited from earlier work
# [5] = humans; cited from earlier work
# [6] = 4-administration with 3-withdrawal, 24 mg/body/day
# [7] = administration for 7 consecutive days, 16 mg/body/day
molecule,measurement,setting,value
"C[C@]1(O)C[C@@](N)(c2ccc(-c3nc4n(c3-c3ccccc3)COc3ccncc3-4)cc2)C1 [Compound 1, trans-3-amino-1-methyl-3-(4-(3-phenyl-5H-imidazo[1,2-c]pyrido[3,4-e][1,3]oxazin-2-yl)phenyl)cyclobutanol]",Body weight change,[1]; each Compound 1 administration group,without serious weight loss
same,"Antitumor effect (RTV, T/C)","[1]; oral 16 or 24 mg/kg/day 7 consecutive days or 24 mg/kg/day 4-administration with 3-withdrawal, Days 1-21",excellent antitumor effect
same,Non-prescribed withdrawal period,advanced solid cancers; [6],2 days and 2.0 days
same,Non-prescribed withdrawal,advanced solid cancers; [6],one of six patients and 1/6
same,RECIST evaluation,"advanced solid cancers; 4-administration with 3-withdrawal, 24 mg/body/day, six patients",two of the six patients had stable disease (SD)
same,RECIST evaluation,advanced solid cancers; [7],all of the patients had progressive disease (PD)
same,Non-prescribed withdrawal,advanced solid cancers; [7],three of six patients and 3/6
same,Non-prescribed withdrawal period,"advanced solid cancers; administration for 7 consecutive days, 16 mg/body/day, average",3.7 days
same,"Tumor shrinkage effect (waterfall plots), 4-administration with 3-withdrawal versus 7 consecutive days","advanced solid cancers; recommend doses, FIG. 4",superior
same,Accumulation (blood drug concentrations day 21 or day 18 versus day 1),[2]; 16 mg/body/day 7 consecutive days and 24 mg/body/day 4-administration with 3-withdrawal,has accumulation properties
same,Blood concentration remaining before administration,[2]; day 3,25.7 ng/mL
same,Blood concentration remaining before administration,[2]; day 4,35.7 ng/mL
same,Half-life,"[2]; human, blood, humans, oral",~49 h
same,Maximum tolerable administration amount (recommend dose),[3]; 4-administration with 3-withdrawal,24 mg/body/day
same,Maximum tolerable administration amount (recommend dose),[3]; administration for 7 consecutive days,16 mg/body/day
same,Half-life,[4],about 2.3 hours
AZD5363,Half-life,[5],about 6 hours
